Measured values published in ChEMBL document CHEMBL3352580, “Teucrium polium phenylethanol and iridoid glycoside characterization and flavonoid inhibition of biofilm-forming Staphylococcus aureus” (2015).
Active and inactive are the calls of the source. No cut-off for these calls is given here.

What was measured:
Staphylococcus aureus [1] = experiment: Inhibition of biofilm formation in Staphylococcus aureus AH133 transformed with GFP assessed as zone of inhibition at 16 mg/ml after 24 hrs by confocal laser scanning microscopy; assay type: functional; conditions: for zone of inhibition at 16000 µg/mL: AH133, 24 h, read-out: IZ
Staphylococcus aureus [2] = experiment: Inhibition of biofilm formation in Staphylococcus aureus AH133 transformed with GFP assessed as zone of inhibition at 40 to 80 ug/disc after 24 hrs by confocal laser scanning microscopy; assay type: functional, organism-based
Staphylococcus aureus [3] = experiment: Inhibition of biofilm formation in Staphylococcus aureus AH133 transformed with GFP assessed as reduction in recovery of CFU at 80 ug/disc after 24 hrs by confocal laser scanning microscopy; assay type: functional, organism-based
Staphylococcus aureus [4] = experiment: Inhibition of biofilm formation in Staphylococcus aureus AH133 transformed with GFP assessed as zone of inhibition at 10 to 20 ug/disc after 24 hrs by confocal laser scanning microscopy; assay type: functional, organism-based

SMILES	inhibition (Staphylococcus aureus [1])	inhibition (Staphylococcus aureus [2])	zone of inhibition at 16000 µg/mL (Staphylococcus aureus [1]) [mm]	inhibition (Staphylococcus aureus [3])	inhibition (Staphylococcus aureus [4])
CC1(C)S[C@@H]2[C@H](NC(=O)[C@H](N)c3ccccc3)C(=O)N2[C@H]1C(=O)O	Active	–	–	–	–
O=c1cc(-c2ccc(O)c(O)c2)oc2cc(O)c(O)c(O)c12 [6-HYDROXYLUTEOLIN]	–	Active	8	Active	inactive
COc1cc2oc(-c3ccc(O)c(O)c3)cc(=O)c2c(O)c1OC [CIRSILIOL]	–	Active	10.3	Active	inactive
